According to US8790719B2, “Phytocannabinoids in the treatment of cancer” (GW Pharma Limited, priority 2010, dated 2014):
Where two headings read alike, the source gives them in different places.

Experiments:
[1] = system: LNCaP; assay: Cell vitality (MTT assay), LNCaP; type: cell-based; conditions: Homo sapiens, read-out: IC50 on cell vitality
Description: (§1) Cells were seeded in presence of FBS in 6 wells multiwell with a density of 8×10^4 cells/well (DU-145) or 1×10^5 cells/well (LNCaP). After 7 hours, cells were starved of dihydrotestosterone (DHT) for 15 hours and treated with increased concentrations of compounds for 24 or 48 hours (absence of serum was maintained during the treatments). Cell viability was assessed by MTT staining.
(§2) Phytocannabinoid BDS and their respective isolated phytocannabinoids were tested in both the hormone-insensitive (DU-145) prostate cancer cells and hormone-sensitive (LNCaP) prostate cancer cells. Three different phytocannabinoids were chosen for this experiment: CBG BDS and isolated compound, CBC BDS and isolated compound and CBD BDS and isolated compound.
(§3) The experiment was repeated in the hormone-insensitive (DU-145) prostate cancer cells and hormone-sensitive (LNCaP) prostate cancer cells that had not been starved of DHT. Here just the CBG BDS and isolated CBG are illustrated in Table 7.2 below.

[2] = system: DU-145; assay: Cell vitality (MTT assay), DU-145; type: cell-based; conditions: Homo sapiens
Description: as §1, §2, §3

[3] = system: hormone-sensitive prostate cancer cell line (LNCaP); assay: Subcutaneous xenograft model, hormone-sensitive prostate cancer (LNCaP); type: in vivo, mice; conditions: taxotere 5 mg/kg i.v. weekly, alone
Description: Cancer cells were maintained in vitro in an appropriate culture medium and were harvested, washed in culture medium and re-suspended in matrigel for ready for in vivo administration. 1-2×10^7 cells in 200 μl were injected subcutaneously into the left flank of mice. The mice were anaesthetised and a 0.5 mg 5-alpha-dihydrotestosterone pellet (21-day release) implanted subcutaneously into the scruff of each mouse to encourage tumour growth, and the wound was closed.
Once the implanted tumour volume reached between 100-200 mm (2-3 weeks) mice were allocated to their treatment groups. Treatment commenced on Day 17. The phytocannabinoid BDS was administered i.p. once daily at doses of 1, 10 & 100 mg/kg cannabinoid BDS for a further 25 days.
In a further experiment the chemotherapeutic agent taxotere (5 mg/kg) i.v. was administered weekly, alone or in combination with 100 mg/kg phytocannabinoid BDS.
Mice were evaluated daily by an experienced technician for 4-5 weeks. Tumour dimensions were recorded at day 7 (calliper measurement of length and width and tumour cross-sectional area and volume calculated) and recorded three times weekly and body weight measured weekly.

[4] = molecular target: T1, monoacylglyceride lipase (MAGL) (Homo sapiens, UniProt Q99685); assay: Inhibition of monoacylglyceride lipase (MAGL); type: biochemical
T1 sequence (Q99685 1-303): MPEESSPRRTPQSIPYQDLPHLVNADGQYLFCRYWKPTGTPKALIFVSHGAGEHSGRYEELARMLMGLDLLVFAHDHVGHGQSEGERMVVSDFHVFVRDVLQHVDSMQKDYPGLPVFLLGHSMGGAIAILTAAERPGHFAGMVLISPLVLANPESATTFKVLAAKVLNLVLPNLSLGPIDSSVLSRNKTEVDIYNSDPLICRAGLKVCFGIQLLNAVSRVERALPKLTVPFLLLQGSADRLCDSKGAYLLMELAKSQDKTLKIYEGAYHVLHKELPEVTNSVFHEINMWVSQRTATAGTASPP
Description: (§4) The effects of the phytocannabinoid BDS THCA, CBN, CBGA, CBDA and CBCV were tested to determine whether they were able to inhibit the MAGL and DAGL enzymes which are able to hydrolyse the endogenous cannabinoid 2-AG to arachidonic acid and glycerol. The results generated from these experiments are detailed in Table 5.1 below.
For this experiment CBG BDS was used as this BDS was the easiest to purify and reconstitute. Four different test articles were used: CBG BDS, isolated CBG, CBG-free CBG BDS and CBG reconstituted BDS, whereby the CBG-free BDS (as prepared in Example 1) was spiked with isolated CBG at the same concentration of CBG as CBG BDS. Table 5.2 below details the data obtained.

[5] = molecular target: T2, diacylglyceride lipase (DAGL) (Homo sapiens, UniProt Q9Y4D2); assay: Inhibition of diacylglyceride lipase (DAGL); type: biochemical
T2 sequence (Q9Y4D2 1-1042): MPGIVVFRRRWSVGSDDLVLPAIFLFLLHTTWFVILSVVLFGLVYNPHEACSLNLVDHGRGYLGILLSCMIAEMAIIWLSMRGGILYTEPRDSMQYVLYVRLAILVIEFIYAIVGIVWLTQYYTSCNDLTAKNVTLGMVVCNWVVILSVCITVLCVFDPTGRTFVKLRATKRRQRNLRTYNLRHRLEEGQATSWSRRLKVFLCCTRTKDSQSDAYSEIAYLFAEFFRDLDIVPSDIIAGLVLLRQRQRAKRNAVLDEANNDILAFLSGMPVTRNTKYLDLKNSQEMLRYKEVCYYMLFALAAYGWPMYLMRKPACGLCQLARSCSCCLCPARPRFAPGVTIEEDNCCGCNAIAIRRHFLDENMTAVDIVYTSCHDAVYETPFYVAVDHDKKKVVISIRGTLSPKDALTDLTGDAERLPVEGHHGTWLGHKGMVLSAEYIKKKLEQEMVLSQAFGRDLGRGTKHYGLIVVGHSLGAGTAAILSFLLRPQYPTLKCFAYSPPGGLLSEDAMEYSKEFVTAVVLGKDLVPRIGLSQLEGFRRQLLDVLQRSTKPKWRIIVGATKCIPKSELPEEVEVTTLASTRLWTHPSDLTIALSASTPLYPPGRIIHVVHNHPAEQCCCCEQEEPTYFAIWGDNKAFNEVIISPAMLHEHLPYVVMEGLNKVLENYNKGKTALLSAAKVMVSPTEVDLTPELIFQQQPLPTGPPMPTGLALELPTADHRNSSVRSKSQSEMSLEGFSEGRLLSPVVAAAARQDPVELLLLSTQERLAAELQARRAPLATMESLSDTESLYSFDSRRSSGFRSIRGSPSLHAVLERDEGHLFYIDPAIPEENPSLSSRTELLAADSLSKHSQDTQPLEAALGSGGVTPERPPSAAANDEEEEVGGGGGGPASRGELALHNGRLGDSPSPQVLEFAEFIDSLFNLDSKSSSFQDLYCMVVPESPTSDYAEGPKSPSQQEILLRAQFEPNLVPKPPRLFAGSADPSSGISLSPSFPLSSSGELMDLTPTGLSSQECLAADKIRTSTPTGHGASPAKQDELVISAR
Description: as §4

[6] = molecular target: T3, GPR55 (Homo sapiens, UniProt Q9Y2T6); assay: ERK Alphascreen assay using GPR55-HEK cells; type: cell-based
T3 construct: expressed in transfected cells; host or cells: HEK cells (GPR55-HEK)
T3 sequence (Q9Y2T6 whole entry, species assumed): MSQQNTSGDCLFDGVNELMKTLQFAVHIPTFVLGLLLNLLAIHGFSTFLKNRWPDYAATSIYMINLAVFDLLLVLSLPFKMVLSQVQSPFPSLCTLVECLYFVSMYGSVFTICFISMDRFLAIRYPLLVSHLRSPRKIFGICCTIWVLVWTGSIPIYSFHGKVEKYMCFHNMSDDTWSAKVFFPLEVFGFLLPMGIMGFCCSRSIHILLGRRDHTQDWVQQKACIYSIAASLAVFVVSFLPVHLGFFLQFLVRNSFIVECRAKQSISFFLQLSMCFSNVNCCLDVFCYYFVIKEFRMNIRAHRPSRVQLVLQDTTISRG
Excerpt: An ERK Alphascreen assay was undertaken using GPR55-HEK cells.

[7] = system: MDA-MB-231 breast cancer cell line; assay: Cell viability of breast cancer cells (Alamar blue assay); type: cell-based; conditions: 72 hours
Description: Cells were seeded in presence of FBS in 6 wells multiwell and treated with increased concentrations of compounds for 72 hours. Cell viability was assessed by Alamar blue staining.
Isolated phytocannabinoids were tested on the MDA-MB-231 breast cancer cell line in order to determine whether phytocannabinoids were effective in other types of cancer other than prostate cancer. The different isolated phytocannabinoids chosen for this experiment were: CBGA, CBDA, CBDV, CBD, THCV and THC.

[8] = system: Glioma cells; assay: Human glioma cell vitality (MTT assay); type: cell-based; conditions: read-out: IC50 on glioma cell vitality
Description: Cells were seeded in presence of FBS in 6 wells multiwell with a density of 8×10^4 cells/well. Glioma cells were treated with increased concentrations of compounds and cell viability was assessed by MTT staining.
CBD BDS and isolated CBD, CBG and CBDV were tested.

[9] = system: hormone-insensitive prostate cancer cell line (DU-145); assay: Chemioluminescence assay for caspase 3/7 release (apoptosis), DU-145; type: cell-based, human; conditions: high dose (25 μM), FIG. 2
Description: (§5) Two different concentrations of cannabinoids were tested; a low dose (10 μM) and a high dose (25 μM). The chemioluminescence that were recorded for each phytocannabinoid are detailed in FIG. 2.

[10] = system: hormone-sensitive prostate cancer cell line (LNCaP); assay: Chemioluminescence assay for caspase 3/7 release (apoptosis), LNCaP; type: cell-based, human; conditions: high dose (25 μM), FIG. 2
Description: as §5

[11] = system: Aberrant crypt focus (ACF), polyps and tumours; assay: Colon carcinogenesis in the mouse induced by azoxymethane; type: in vivo
Excerpt: Aberrant crypt focus (ACF), polyps and tumours were induced in the mouse by the carcinogenic substance azoxymethane. The phytocannabinoids were given (i.p.) to the mice three times per week for a period of three months. The COX-2 inhibitor celecoxib was used as a positive control.

[12] = system: human glioma xenograft tumours; assay: Human glioma xenograft tumour volume; type: in vivo; set-up: unit not given here; conditions: TMZ (100 μM) alone; Table 13.2
Description: The phytocannabinoids were also tested with the TMZ as is detailed in Table 13.2 below.

[13] = system: U87 glioma cells; assay: Viability of U87 glioma cells (MTT assay), THC, CBD, TMZ alone and combined; type: cell-based, human; conditions: TMZ 100 μM alone, Table 12.2
[14] = system: hormone sensitive LNCaP cells; conditions: 24-48 hours; cited from earlier work
[15] = DU-145, 24 h, read-out: IC50 on cell vitality
[16] = DU-145, 48 h, read-out: IC50 on cell vitality
[17] = at 50 μM, read-out: Max concentration tested (% inhibition), MAGL
[18] = read-out: Max concentration tested (% inhibition), DAGL

`CCCCCc1cc(O)c2c(c1)OC(C)(CCC=C(C)C)C=C2` (stereo not shown) [CBC, Cannabichromene] gave an IC50 ([1]; 24 h) of 10.8 µM, an IC50 ([1]; 48 h) of 6 µM and an IC50 [2, 15] of 7.5 µM. For the same compound, the IC50 [2, 16] was 5.6 µM.

For `CC(=O)O[C@@]12CO[C@@H]1C[C@H](O)[C@@]1(C)C(=O)[C@H](O)C3=C(C)[C@@H](OC(=O)[C@H](O)[C@@H](NC(=O)OC(C)(C)C)c4ccccc4)C[C@@](O)([C@@H](OC(=O)c4ccccc4)[C@H]21)C3(C)C` [taxotere], the “growth rate and terminal tumour volume” value [3] was “significantly inhibited both growth rate and terminal tumour volume”.

With `CCCc1cc(O)c2c(c1)OC(C)(CCC=C(C)C)C=C2` (stereo not shown) [CBCV] the IC50 ([4]; Table 5.1, read-out: MAG IC50) was > 50 µM, the inhibition at 50 µM [4, 17] was 4.8% and the inhibition at 50 µM [5, 18] was 18.9%.

With `C=C(C)[C@@H]1CCC(C)=C[C@H]1c1c(O)cc(CCC)cc1O` [CBDV, Cannabidivarin] the “Effect at GPR55” value [6] was “Antagonist”, the IC50 ([7]; Homo sapiens) was 5 µM and the IC50 [8] was 12.4 µM.

With `CCCc1cc(O)c2c(c1)OC(C)(C)[C@@H]1CCC(C)=C[C@@H]21` [THCV, Tetrahydrocannabivarin] the “Effect at GPR55” value [6] was “Antagonist (at low concentrations)”, the IC50 ([7]; Homo sapiens) was 6.5 µM and the “pro-apoptotic effect (chemioluminescence, caspase 3/7 release)” value (from here on “pro-apoptotic effect”) [9] was “apotosis levels over that of the control”.

For `CCCc1cc2c(c(O)c1C(=O)O)[C@@H]1C=C(C)CC[C@H]1C(C)(C)O2` [THCVA, Tetrahydrocannabivarinic acid], the “pro-apoptotic effect” value [10] was “highest pro-apoptotic effect” and the “pro-apoptotic effect” value [9] was “highest pro-apoptotic effects”.

With `CCCCCc1cc(O)c2c(c1)OC(C)(C)c1ccc(C)cc1-2` [CBN, Cannabinol] the IC50 [4] was > 50 µM, the inhibition at 50 µM [4, 17] was 31.5% and the inhibition at 50 µM [5, 18] was 26.9%.

In the case of `C=C(C)[C@@H]1CCC(C)=C[C@H]1c1c(O)cc(CCCCC)c(C(=O)O)c1O` [CBDA, Cannabidiolic acid], the “Effect at GPR55” value [6] is reported as “Antagonist”, the IC50 ([7]; Homo sapiens) is reported as 3.9 µM and the IC50 ([4]; Table 5.1, read-out: MAG IC50) is reported as > 50 µM. The inhibition at 50 µM [4, 17] was 18.5% and the inhibition at 100 µM ([5]; at 100 μM, read-out: Max concentration tested (% inhibition), DAGL) was 91.4%.

For `CCCCCc1cc(O)c(C/C=C(\C)CCC=C(C)C)c(O)c1` [CBG, Cannabigerol], the IC50 ([1]; 24 h) was 10.8 µM, the IC50 ([1]; 48 h) was 8.1 µM and the IC50 [1] was > 25 µM. For the same compound, the “protective effect against the experimentally induced colon carcinogenesis” value ([11]; FIG. 6 a)) was “most statistically significant results”, the “formation of ACF with 4 or more crypts” value ([11]; FIG. 6 b)) was “no ACF with greater than 4 crypts” and the “numbers of tumours per animal” value ([11]; i.p. three times per week for three months; FIG. 5 c), FIG. 6 c)) was “no tumours were produced”. For the same compound, the EC50 ([4]; Table 5.2, BDS vs isolated vs reconstituted) was 195 µM, the inhibition at 100 µM ([4]; Table 5.2, read-out: Max tested on MAGL % inhibition) was 31.5% and the IC50 [2, 15] was 11.8 µM. For the same compound, the IC50 [2, 16] was 5.8 µM, the IC50 ([2]; DU-145, read-out: IC50 on cell vitality) was > 25 µM and the IC50 [8] was 12.4 µM.

In the case of `CCCc1cc(O)c(C/C=C(\C)CCC=C(C)C)c(O)c1` [CBGV, Cannabigerol propyl variant], the “Effect at GPR55” value [6] is reported as “Antagonist”.

With `Cn1nnc2c(C(N)=O)ncn2c1=O` [TMZ, temazolamide, reference compound] the “Tumour volume (increase from day 1)” value [12] was 4.1 and the “Cell Viability (%)” value [13] was 82%.

In the case of `Cc1c(C(=O)c2cccc3ccccc23)c2cccc3c2n1[C@H](CN1CCOCC1)CO3` [WIN-55,212-2], the “inhibition of cell growth” value [14] is listed as “inhibition of cell growth”.

In the case of `CCCCCc1cc(O)c(C/C=C(\C)CCC=C(C)C)c(O)c1C(=O)O` [CBGA], the “Effect at GPR55” value [6] is reported as “Inverse agonist”, the IC50 [7] is reported as 2.2 µM and the IC50 ([4]; Table 5.1, read-out: MAG IC50) is reported as > 50 µM. The “Max concentration tested (% inhibition), MAGL” value ([4]; at 50 μM) was “(17.2%)”, the IC50 ([5]; Table 5.1) was 30 µM and the “Max concentration tested (% inhibition), DAGL” value ([5]; at 100 μM) was “(67.5%)”.

For `CCCCCc1cc2c(c(O)c1C(=O)O)[C@@H]1C=C(C)CC[C@H]1C(C)(C)O2` [THCA, Tetrahydrocannabinolic acid], the IC50 [4] was 46 µM, the inhibition at 100 µM ([4]; read-out: Max concentration tested (% inhibition), MAGL) was 81.9% and the inhibition at 50 µM [5, 18] was 79.3%.
